{"source": "patent US20240197166A1", "about": "“COMPUTATIONAL IN SILICO MODEL FOR CORNEA BARRIER” (CFD Research Corporation, priority 2022, published 2024)", "key": {"[1]": {"system": "corneal barrier of the in vitro cornea device (epithelial, fibroblast, endothelial triculture)", "test": "Permeability of the in vitro cornea device to FSS after trypan blue exposure", "format": "cell-based", "settings": "trypan blue injected into TFEp channel at 3 μL/min for 4 min, incubated at 37° C. for 15 min; then FSS injected into TFEp channel and permeability assayed; worded \"can be\"", "procedure": "(§1) In some embodiments, all channels of the device can be coated with human fibronectin to facilitate cellular attachment. For example, primary human corneal fibroblasts can be seeded on Day 0. Fibroblasts can be harvested, concentrated to 1×10^7 cells/mL and injected into the stromal chamber via a remote head syringe pump at 5 μL/min until cells are homogenously distributed. Devices can then be incubated at 37° C., 5% CO2 for 4 hours to allow for attachment. Media can be subsequently refreshed every 24 hours. Primary human corneal epithelial cells can be seeded into the TFEp circulation channel on Day 3. […]\n(§2) Viability can be assessed on-chip as an endpoint for epithelial, fibroblast, and endothelial cells. Devices are prepared for viability quantitation by incubation with calcein AM and ethidium homodimer in PBS. After rinsing the cells with PBS, fluorescent images are taken via microscope, and the data was analyzed to determine cornea triculture viability (scc, FIG. 5A). […]\nFollowing exposure, FSS can be injected into the TFEp channel and permeability assayed. […] Samples can be taken from cell-laden channels (individually or combined) and placed in a low volume, white walled […] plate for luminescence analysis using a plate reader. […] The increase in AK release in arbitrary luminescence units compares the toxic exposure of trypan blue to positive and negative controls. […]"}, "[2]": {"system": "cells of the in vitro cornea device (cell-laden channels)", "test": "Cytotoxicity by adenylate kinase release (luminescence) from the cell-laden channels of the in vitro cornea device", "format": "cell-based", "settings": "trypan blue exposure; compared with positive control (100% death by lysis buffer) and negative control (media only); arbitrary luminescence units; worded \"expected\"", "procedure": "as §1, §2\nFollowing exposure, FSS can be injected into the TFEp channel and permeability assayed. […] Samples can be taken from cell-laden channels (individually or combined) and placed in a low volume, white walled […] plate for luminescence analysis using a plate reader. […] The increase in AK release in arbitrary luminescence units compares the toxic exposure of trypan blue to positive and negative controls."}}, "data": [{"smiles": "Cc1cc(-c2ccc(/N=N/c3c(S(=O)(=O)O)cc4cc(S(=O)(=O)O)cc(N)c4c3O)c(C)c2)ccc1/N=N/c1c(S(=O)(=O)O)cc2cc(S(=O)(=O)O)cc(N)c2c1O", "note": "[trypan blue]", "values": [{"measurement": "Permeability in trypan blue treated devices compared to controls", "setting": "[1]", "result": 10, "unit": "fold"}, {"measurement": "Increase in adenylate kinase release", "setting": "[2]", "result": 1.5, "unit": "fold"}]}]}
